Measurements from PubChem BioAssay AID1963441 (Molecular Pharmacology Branch, DTP, NCI, 2024).
Values joined by “and” are separate entries in the source; they are usually repeats but may differ in a detail not shown here. Equal values may be shown once.

System: NCI-H1876 complex spheroid growth, % test/control
Experiment: Anticancer human tumor NCI-H1876 cell line growth inhibition [Asc];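 note: compound exposure lasted 7 days starting three days after seeding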;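 for viability, T/C: 100% = DMSO vehicle control wells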
Settings: for viability, T/C: stronger effect = lower value; active = viability on the fitted dose curve at most 10% of control; inactive = the rest
Summary of the method: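 Spheroid model: tumor line + HUVEC + hMSC. Single agents and combinations; top conc. at/near clinical Cmax (10 microM if undetermined), half-log dilutions. DMSO stocks at 800-fold test concentration.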

[1] = curve of first compound, second compound 0.0316 µM
[2] = curve of first compound, second compound 0.1 µM
[3] = curve of first compound, second compound 0.316 µM
[4] = curve of first compound, second compound 1 µM
[5] = curve of first compound, second compound 3.16 µM
[6] = curve of first compound, second compound 10 µM
[7] = second compound 0.0316 µM, first compound 0.000316 µM
[8] = second compound 0.0316 µM, first compound 0.001 µM
[9] = second compound 0.0316 µM, first compound 0.00316 µM
[10] = second compound 0.0316 µM, first compound 0.01 µM
[11] = second compound 0.0316 µM, first compound 0.0316 µM
[12] = second compound 0.0316 µM, first compound 0.1 µM
[13] = second compound 0.1 µM, first compound 0.000316 µM
[14] = second compound 0.1 µM, first compound 0.001 µM
[15] = second compound 0.1 µM, first compound 0.00316 µM
[16] = second compound 0.1 µM, first compound 0.01 µM
[17] = second compound 0.1 µM, first compound 0.0316 µM
[18] = second compound 0.1 µM, first compound 0.1 µM
[19] = second compound 0.316 µM, first compound 0.000316 µM
[20] = second compound 0.316 µM, first compound 0.001 µM
[21] = second compound 0.316 µM, first compound 0.00316 µM
[22] = second compound 0.316 µM, first compound 0.01 µM
[23] = second compound 0.316 µM, first compound 0.0316 µM
[24] = second compound 0.316 µM, first compound 0.1 µM
[25] = second compound 1 µM, first compound 0.000316 µM
[26] = second compound 1 µM, first compound 0.001 µM
[27] = second compound 1 µM, first compound 0.00316 µM
[28] = second compound 1 µM, first compound 0.01 µM
[29] = second compound 1 µM, first compound 0.0316 µM
[30] = second compound 1 µM, first compound 0.1 µM
[31] = second compound 3.16 µM, first compound 0.00316 µM
[32] = second compound 3.16 µM, first compound 0.01 µM
[33] = second compound 3.16 µM, first compound 0.0316 µM
[34] = second compound 3.16 µM, first compound 0.1 µM
[35] = second compound 10 µM, first compound 0.00316 µM
[36] = second compound 10 µM, first compound 0.01 µM
[37] = second compound 10 µM, first compound 0.0316 µM
[38] = second compound 10 µM, first compound 0.1 µM

NC1CCC(NC2CC2c2ccccc2)CC1 (stereo not drawn) + Cc1c(S(C)(=O)=O)c(-c2cc(F)cc(N3CCN(c4ccc(NS(=O)(=O)c5ccc(NC(CCN6CCC(C(=O)OCCCP(=O)(O)O)CC6)CSc6ccccc6)c(S(=O)(=O)C(F)(F)F)c5)cc4)CC3)c2)c(-c2ccc(Cl)cc2)n1C(C)C
> 100 nM: IC50 [1] | IC50 [2] | IC50 [3] | IC50 [4] | IC50 [5] | IC50 [6]
inactive: viability, T/C [7] 111% | viability, T/C [8] 101% | viability, T/C [9] 99.3% | viability, T/C [10] 106% | viability, T/C [11] 109% | viability, T/C [12] 119% | viability, T/C [13] 114% | viability, T/C [14] 103% | viability, T/C [15] 105% | viability, T/C [16] 110% | viability, T/C [17] 103% | viability, T/C [18] 112% | viability, T/C [19] 99.6% | viability, T/C [20] 103% | viability, T/C [21] 113% | viability, T/C [22] 101% | viability, T/C [23] 120% | viability, T/C [24] 106% | viability, T/C [25] 97.5% | viability, T/C [26] 97.7% | viability, T/C [27] 93.1% | viability, T/C [28] 93.9% | viability, T/C [29] 109% | viability, T/C [30] 114% | viability, T/C (second compound 3.16 µM, first compound 0.000316 µM) 103% | viability, T/C (second compound 3.16 µM, first compound 0.001 µM) 112% | viability, T/C [31] 98.2% | viability, T/C [32] 104% | viability, T/C [33] 110% | viability, T/C [34] 98.9% | viability, T/C (second compound 10 µM, first compound 0.000316 µM) 118% | viability, T/C (second compound 10 µM, first compound 0.001 µM) 105% | viability, T/C [35] 101% | viability, T/C [36] 103% | viability, T/C [37] 111% | viability, T/C [38] 108%

COc1c(OCCCN2CCOCC2)ccc2c3n(c(=NC(=O)c4cnc(N)nc4)nc12)CCN3 + Cc1c(S(C)(=O)=O)c(-c2cc(F)cc(N3CCN(c4ccc(NS(=O)(=O)c5ccc(NC(CCN6CCC(C(=O)OCCCP(=O)(O)O)CC6)CSc6ccccc6)c(S(=O)(=O)C(F)(F)F)c5)cc4)CC3)c2)c(-c2ccc(Cl)cc2)n1C(C)C
207 nM: IC50 [3]
inactive: viability, T/C [9] 94.3% | viability, T/C [10] 88% | viability, T/C [11] 91.3% | viability, T/C [12] 62.4% | viability, T/C (second compound 0.0316 µM, first compound 0.316 µM) 49.3% | viability, T/C (second compound 0.0316 µM, first compound 1 µM) 35.9% | viability, T/C [15] 93.2% | viability, T/C [16] 88% | viability, T/C [17] 88.2% | viability, T/C [18] 63.2% | viability, T/C (second compound 0.1 µM, first compound 0.316 µM) 45.4% | viability, T/C (second compound 0.1 µM, first compound 1 µM) 29.6% | viability, T/C [21] 94.3% | viability, T/C [22] 94.4% | viability, T/C [23] 87.6% | viability, T/C [24] 62.2% | viability, T/C (second compound 0.316 µM, first compound 0.316 µM) 43.2% | viability, T/C (second compound 0.316 µM, first compound 1 µM) 20.1% | viability, T/C [27] 98.5% | viability, T/C [28] 94.7% | viability, T/C [29] 82.5% | viability, T/C [30] 57.3% | viability, T/C (second compound 1 µM, first compound 0.316 µM) 35% | viability, T/C (second compound 1 µM, first compound 1 µM) 18.7% | viability, T/C [31] 101% | viability, T/C [32] 84.7% | viability, T/C [33] 77.9% | viability, T/C [34] 52.8% | viability, T/C (second compound 3.16 µM, first compound 0.316 µM) 29.2% | viability, T/C (second compound 3.16 µM, first compound 1 µM) 10.7% | viability, T/C [35] 96.7% | viability, T/C [36] 90.3% | viability, T/C [37] 74.5% | viability, T/C [38] 48.4% | viability, T/C (second compound 10 µM, first compound 0.316 µM) 28.3%
active: viability, T/C (second compound 10 µM, first compound 1 µM) 8.91%
243 nM: IC50 [1]
118 nM: IC50 [5]
102 nM: IC50 [6]
225 nM: IC50 [2]
149 nM: IC50 [4]

CCN1CCN(Cc2ccc(Nc3ncc(F)c(-c4cc(F)c5nc(C)n(C(C)C)c5c4)n3)nc2)CC1
inactive: viability, T/C (compound 0.00316 µM) 101% and 103% and 104% | viability, T/C (compound 0.01 µM) 94.1% and 101% and 89.8% | viability, T/C (compound 0.0316 µM) 97.1% and 101% and 106% | viability, T/C (compound 0.1 µM) 105% and 100% and 106% | viability, T/C (compound 0.316 µM) 114% (2×) and 120% | viability, T/C (compound 1 µM) 126% and 132% and 131%
> 1000 nM: IC50 (curve of compound)

NC1CCC(NC2CC2c2ccccc2)CC1 (stereo not drawn) + CNC(C)C(=O)NC1CN(S(=O)(=O)c2cccc(S(=O)(=O)N3CCC4CCC(C(=O)NC(c5ccccc5)c5ccccc5)N4C(=O)C(NC(=O)C(C)NC)C3)c2)CCC2CCC(C(=O)NC(c3ccccc3)c3ccccc3)N2C1=O
inactive: viability, T/C (second compound 0.00316 µM, first compound 0.000316 µM) 119% | viability, T/C (second compound 0.00316 µM, first compound 0.001 µM) 118% | viability, T/C (second compound 0.00316 µM, first compound 0.00316 µM) 132% | viability, T/C (second compound 0.00316 µM, first compound 0.01 µM) 133% | viability, T/C (second compound 0.00316 µM, first compound 0.0316 µM) 131% | viability, T/C (second compound 0.00316 µM, first compound 0.1 µM) 119% | viability, T/C (second compound 0.01 µM, first compound 0.000316 µM) 119% | viability, T/C (second compound 0.01 µM, first compound 0.001 µM) 121% | viability, T/C (second compound 0.01 µM, first compound 0.00316 µM) 121% | viability, T/C (second compound 0.01 µM, first compound 0.01 µM) 124% | viability, T/C (second compound 0.01 µM, first compound 0.0316 µM) 128% | viability, T/C (second compound 0.01 µM, first compound 0.1 µM) 140% | viability, T/C [7] 116% | viability, T/C [8] 118% | viability, T/C [9] 138% | viability, T/C [10] 125% | viability, T/C [11] 127% | viability, T/C [12] 127% | viability, T/C [13] 121% | viability, T/C [14] 128% | viability, T/C [15] 128% | viability, T/C [16] 128% | viability, T/C [17] 128% | viability, T/C [18] 121% | viability, T/C [19] 131% | viability, T/C [20] 113% | viability, T/C [21] 118% | viability, T/C [22] 130% | viability, T/C [23] 143% | viability, T/C [24] 124% | viability, T/C [25] 122% | viability, T/C [26] 129% | viability, T/C [27] 136% | viability, T/C [28] 131% | viability, T/C [29] 137% | viability, T/C [30] 143%
> 100 nM: IC50 (curve of first compound, second compound 0.00316 µM) | IC50 (curve of first compound, second compound 0.01 µM) | IC50 [1] | IC50 [2] | IC50 [3] | IC50 [4]
